The source of these data is article PMC8151848, “Tambjamines and Prodiginines: Biocidal Activity against Trypanosoma cruzi” (Pharmaceutics, 2021).

Structures are written as SMILES. Read-outs that look alike come from different tables or passages of the source.

Data set [1] concerns murine L-929 fibroblasts (NCTC clone 929). The data set can be described thus: Cytotoxicity assay (resazurin) in L-929 fibroblasts. Type of data set: cell-based, mouse. An excerpt: (§1) Mouse L-929 fibroblasts (NCTC clone 929, ECACC 88102702) were used for both drug toxicity and infection assays. Cell line was obtained from Dr. Concepció Soler, Dept. Pathology & Experimental therapeutics, Faculty of Medicine and Health Sciences, University of Barcelona, Spain. Human hepatocarcinoma Hep G2 cells (American Type Culture Collection (ATCC HB-8065)) were employed only in the drug toxicity assays and were obtained from Dr. Neus Agell, Cell Biology Research Group, Faculty of Medicine and Health Sciences, University of Barcelona, Spain.
(§2) Cells were seeded by trypsinization in 96-well microplates (L-929: 4 × 10^3 cells/well; Hep G2: 1.5 × 10^4 cells/well) and incubated for 24 h at 37 °C to allow cell attachment. On the following day, the medium was discarded and replaced with a fresh medium containing the different concentrations of the drugs. Hep G2 cells were treated with concentrations of 100, 10, and 1 µM of the different drugs, while L-929 cells were treated with a wider range of concentrations in order to calculate the IC50 value (the drug concentration that inhibits 50% of cell growth). Medium, growth, and drug blanks were used in each test as controls. Plates were incubated again for another 24 h. After treatment, 20 µL of resazurin diluted in 1X phosphate-buffered saline (PBS; Sigma Aldrich) was added at a final concentration of 70 µM. The plates were incubated for another 24 h, after which fluorescence was measured in a microplate reader (FLUOstar OPTIMA, BMG LABTECH GmbH, Ortenberg, Germany) at an excitation wavelength of 530 nm and an emission wavelength of 590 nm. Each concentration was tested in triplicate and the experiments were repeated three times independently. Results indicated the percentage of toxicity (% T value). (3) % Toxicity=100−(AE−AEB)/(AC−ACB)×100 where AE is the absorbance of the experimental group, AEB the absorbance of the drug blank, AC the absorbance of the untreated cells, and ACB the absorbance of the culture medium blank. For the L-929 fibroblasts, the IC50 values (the drug concentration that inhibits 50% of cell growth) were calculated for each compound using the GraphPad Prism software.

Data set [2] concerns human hepatocarcinoma cells (Hep G2). The data set can be described thus: Cytotoxicity assay (resazurin) in Hep G2 cells. The data set is classed as cell-based. The settings on record: for Cytotoxicity (% cell growth inhibition) at 1 µM ± SD: Hep G2, 1 µM.
Source text: as §1
as §2, with “Hep G2 cells were treated with concentrations of 100, 10, and 1 µM of the different drugs, while L-929 cells were treated with a wider range of concentrations in order to calculate the IC50 value (the drug concentration that inhibits 50% of cell growth).” left out, “For the L-929 fibroblasts, the IC50 values (the drug concentration that inhibits 50% of cell growth) were calculated for each compound using the GraphPad Prism software.” left out

The test system of data set [3] is epimastigotes of T. cruzi (CL strain, clone B5). Nature of the data set: Epimastigote susceptibility assay (monotherapy). The data set is classed as cell-based, Trypanosoma cruzi. Here is the method: The CL-B5 strain was stably transfected with the Escherichia coli β-galactosidase gene (lacZ) and routinely maintained in exponential growth by weekly passages. Trypomastigotes of the CL-B5 strain were obtained as previously reported.
The screening assays were performed in 96-well microplates (WWR Int LLC) containing serially diluted concentrations of each compound and seeded with 2.5 × 10^5 epimastigotes/mL harvested during the exponential growth phase. Growth, medium, and drug blanks were used in each assay as controls. An internal control of the reference drug, benznidazole, was also included. After 72 h at 28 °C, 50 µL of the substrate chlorophenol red-β-D-galactopyranoside (CPRG; Roche) diluted in 0.9% Triton X-100 solution (EMD, Darmstadt, Germany) were added at a final concentration of 200 µM. Then, after 3 h at 37 °C, measurements were performed in a scanning multiwell spectrophotometer (ELISA Multiskan Reader, BioTek Instruments, Inc., Winooski, VT, USA) at 595 nm. Each concentration was tested in triplicate and the experiments were performed three times independently. The efficacy of the compounds was calculated by determining the percentage of epimastigote growth (% EG value) as follows:(1) % Epimastigote growth=(AE−AEB)/(AC−ACB)×100 where AE is the absorbance of the experimental group, AEB the absorbance of the drug blank, AC the absorbance of the control group, and ACB the absorbance of the culture medium blank. The IC50 values (the drug concentration that eliminates 50% of the parasites) were determined for each compound using the GraphPad Prism software (Version 5.0.0 for Windows, GraphPad Software, San Diego, CA, USA).

The mark [4] stands for this setting: IC50 for L-929 fibroblasts / IC50 for T. cruzi epimastigotes.
[5] abbreviates: Mus musculus, L929, read-out: IC50 (µM) L-929 cell growth inhibition.
Setting [6] is: Homo sapiens, HepG2, read-out: IC50 (µM) Hep G2 cell growth inhibition.
Where [7] appears, read: Trypanosoma cruzi, CLB strain, 72 h at 28 °C, mean ± SD, read-out: IC50 (µM) in epimastigotes of T. cruzi.

Turning to `CCCCCC1=C/C(=C/c2[nH]c(-c3ccc[nH]3)cc2OC)N=C1C` [Natural prodigiosin, prodigiosin], the half-maximal inhibitory concentration (IC50) amounted to 5 ± 0.83 µM in data set [1] (Mus musculus, L929, read-out: IC50 (µM) L-929 cell growth inhibition, L-929); 6.02 ± 0.5 µM in data set [2] (read-out: IC50 (µM) Hep G2 cell growth inhibition, Hep G2); 0.54 ± 0.25 µM in data set [3] (read-out: IC50 (µM) in epimastigotes of T. cruzi, CLB strain, 72 h at 28 °C, mean ± SD). The “Cytotoxicity (% cell growth inhibition) at 1 µM ± SD” value in data set [2] (n = 9) was found to be 2.29 ± 3.97%. In addition, in data set [2] (Hep G2, 10 µM, n = 9, 10 µM), the “Cytotoxicity (% cell growth inhibition) at 10 µM ± SD” value was 87.97 ± 5.94%. Further, in data set [3] (setting [4]), the “Selectivity index (SI), Epimastigotes” value was found to be 9.25.

Regarding `CCc1c(-c2ccc[nH]2)[nH]c(/C=N/c2ccc(C(C)(C)C)cc2)c1C` [MM4], the half-inhibitory concentration (IC50) in data set [1] (setting [5]) is 14 ± 1.28 µM; in data set [2] (setting [6]), 52.5 ± 9.21 µM; in data set [3] (setting [7]), 5.08 ± 0.62 µM. The “Selectivity index (SI), Epimastigotes” value in data set [3] (setting [4]) is 2.76.

As for `CCc1c(-c2ccc[nH]2)[nH]c(/C=N/C2CCCCC2)c1C` [MM3], the IC50 in data set [1] (setting [5]) was found to be 12.2 ± 0.28 µM; in data set [2] (setting [6]), 46 ± 8.15 µM; in data set [3] (setting [7]), 4.52 ± 1.43 µM. The “Selectivity index (SI), Epimastigotes” value in data set [3] (setting [4]) is on record as 2.70.

With `CCCCCC1=C/C(=C/c2[nH]c(-c3ccc[nH]3)cc2OC)N=C1C` [Synthetic prodigiosin, prodigiosin], the “% Cytotoxicity ± SD” value in data set [1] (L-929, 16 µM, n = 9, 16 µM) was 95.75 ± 0.06%. In addition, the half-inhibitory concentration (IC50) in data set [1] (read-out: IC50 (µM) L-929 cell growth inhibition, L-929) was determined as 3.06 ± 0.01 µM; in data set [2] (Homo sapiens, HepG2, read-out: IC50 (µM) Hep G2 cell growth inhibition, Hep G2), 5.15 ± 0.39 µM; in data set [3] (Trypanosoma cruzi, 72 h, read-out: IC50 (µM) in epimastigotes of T. cruzi, CLB strain, 72 h at 28 °C, mean ± SD) it was 0.46 ± 0.03 µM. Further, the “Cytotoxicity (% cell growth inhibition) at 1 µM ± SD” value in data set [2] (n = 9) is given as 15 ± 6.12%. Also, in data set [3] (setting [4]), the “Selectivity index (SI), Epimastigotes” value was determined as 6.65.

Turning to `O=C(Cn1ccnc1[N+](=O)[O-])NCc1ccccc1` [Benznidazole, reference compound], the results for the IC50 in data set [1] (setting [5]), in data set [2] (setting [6]) and in data set [3] (setting [7]) were 1372.3 ± 0.5 µM, greater than 100 µM and 19 ± 7.07 µM, respectively. Besides, in data set [3] (setting [4]), the “Selectivity index (SI), Epimastigotes” value amounted to 72.37.

Turning to `COC1=CC(c2cc3ccccc3[nH]2)=N/C1=C\c1[nH]c(C)cc1C` [Obatoclax, reference compound], the results for the IC50 in data set [1] (setting [5]), in data set [2] (setting [6]) and in data set [3] (setting [7]) were 5.83 ± 1.07 µM, 8.18 ± 1.87 µM and 3.46 ± 0.96 µM, respectively. In data set [3], the “Selectivity index (SI), Epimastigotes” value came out at 1.68.
